The values that follow come from US5776919A, “Potentiators of antimicrobial activity” (priority 1996, dated 1998).

What all share (format): cell-based
The test system of test [1] is Escherichia coli (ATCC 10536). In words: MIC determination by broth dilution. As to the method:
(§1) The MICs were determined by the broth dilution method. […] The assays were performed in duplicate.

The subject of test [2] is methicillin-resistant Staphylococcus aureus (ATCC 33591). The experiment in a line: MIC determination by broth dilution. As to the method:
as §1

The test system of test [3] is Pseudomonas aeruginosa (ATCC 10145). In words: MIC determination by broth dilution. As to the method:
as §1

Test [4] has as its system Escherichia coli (ATCC 10536). In words: MBC determination. As to the method: (§2) After 24 hours of incubation, the colonies were counted.
In test [5] the test system is methicillin-resistant Staphylococcus aureus (ATCC 33591). In words: MBC determination. As to the method: as §2
The subject of test [6] is Pseudomonas aeruginosa (ATCC 10145). In words: MBC determination. As to the method:
as §2

Test [7] deals with Candida albicans (ATCC 10231). The experiment in a line: MIC determination by broth dilution. As to the method: as §1
For test [8], the system named is Candida albicans (ATCC 10231). The experiment in a line: MBC determination. As to the method: as §2
Where [9] appears, read: compound alone, E. coli ATCC 10536, 2 days at 37° C.
Where [10] appears, read: compound alone, MRSA ATCC 33591, 2 days at 37° C.
Where [11] appears, read: compound alone, P. aeruginosa (ATCC 10536 [sic]), 2 days at 37° C.
The mark [12] stands for this setting: compound alone, E. coli ATCC 10536.
The mark [13] stands for this setting: compound alone, MRSA ATCC 33591.
[14] abbreviates: compound alone, P. aeruginosa (ATCC 10536 [sic]).
The mark [15] stands for this setting: Staphylococcus aureus, ATCC 33591 / MRSA, 48 h, compound alone, MRSA ATCC 33591, 2 days at 37° C., read-out: MIC.
Where [16] appears, read: compound alone, C. albicans ATCC 10231, 2 days at 37° C.
Setting [17] is: compound alone, C. albicans ATCC 10231.

In brackets after ≈: the same amount, converted by molar mass. Several values for one entry are separate records, joined by “and”; a condition that tells them apart may be missing. Equal entries are not always repeated. Where two headings read alike, the source gives them in different places.

In the case of `CCC/C=C/C=O` [2-Hexenal, t-2-hexenal], the MIC was 200 µg/mL and 400 µg/mL in test [1] (setting [9]); 400 µg/mL (≈ 4.08 mM) in test [2] (setting [10]); 200 µg/mL (≈ 2.04 mM) in test [3] (setting [11]). For the same compound, the MBC in test [4] (setting [12]) was found to be 400 µg/mL (≈ 4.08 mM); in test [5] (setting [13]), 800 µg/mL (≈ 8.15 mM); in test [6] (setting [14]) it was 400 µg/mL (≈ 4.08 mM).
For `C=CC/C=C\C/C=C\CCCCCCCc1cccc(O)c1C(=O)O` [Anacardic Acid (15:3)], the MIC in test [2] (setting [10]) was found to be 6.25 µg/mL (≈ 0.0182 mM).
For the compound `CCCCCCCCCCCCO` [Dodecanol, n-dodecanol], the MIC in test [2] (setting [15]) is 80 µg/mL (≈ 0.429 mM).
For the compound `c1ccc2[nH]ccc2c1` [Indole, indole], the MIC in test [1] (Escherichia coli, ATCC10536, 48 h) was 800 µg/mL (≈ 6.83 mM); in test [2] (Staphylococcus aureus, ATCC 33591 / MRSA, 48 h), 800 µg/mL (≈ 6.83 mM); in test [3] (Pseudomonas aeruginosa, ATCC 10145 / ATCC 10536, 48 h), 400 µg/mL (≈ 3.41 mM); in test [7] (Candida albicans, ATCC10231, 48 h) it was 400 µg/mL (≈ 3.41 mM). Also, the MBC in test [4] (Escherichia coli, ATCC10536) is 800 µg/mL (≈ 6.83 mM); in test [5] (Staphylococcus aureus, ATCC 33591 / MRSA), 800 µg/mL (≈ 6.83 mM); in test [6] (Pseudomonas aeruginosa, ATCC 10145 / ATCC 10536), 800 µg/mL (≈ 6.83 mM); in test [8] (Candida albicans, ATCC10231) it was 800 µg/mL (≈ 6.83 mM).
In the case of `COc1cccc(OC)c1C(=O)N[C@@H]1C(=O)N2[C@@H]1SC(C)(C)[C@@H]2C(=O)O` [Methicillin, methicillin, reference compound], the MIC in test [2] (setting [15]) is 800 µg/mL (≈ 2.1 mM).
The same measure, in the same setting: the result for `CCCCCCCCCCCCCO` [Tridecanol, n-tridecanol] reads 50 µg/mL (≈ 0.25 mM); that for `CCCCCCCCCCCO` [Undecanol, n-undecanol], 50 µg/mL (≈ 0.29 mM).
On to Anacardic Acid, for which, in test [2] (setting [10]), the MIC worked out at 6.25 µg/mL.
For polymyxin B [reference compound], the MIC in test [1] (setting [9]) is 3.13 µg/mL; in test [2] (setting [10]), 800 µg/mL; in test [3] (setting [11]), 6.25 µg/mL; in test [7] (setting [16]), 800 µg/mL. Besides, the MBC in test [4] (setting [12]) was found to be 3.13 µg/mL; in test [5] (setting [13]) it was 800 µg/mL; in test [6] (setting [14]), 6.25 µg/mL; in test [8] (setting [17]) it was 1600 µg/mL.
On to polymyxin E [reference compound], for which the minimal inhibitory concentration (MIC) in test [1] (setting [9]) amounted to 3.13 µg/mL; in test [3] (setting [11]), 6.25 µg/mL; in test [7] (setting [16]) it was 1600 µg/mL. For the same compound, the figures for the MBC in test [4] (setting [12]), in test [6] (setting [14]) and in test [8] (setting [17]) were 6.25 µg/mL, 12.5 µg/mL and 1600 µg/mL, respectively.
